Key:
[1] = biological target: T1, enzyme in 2-e-2 cell lysate (Bacillus thuringiensis, UniProt E2GIN1); experiment: Effects of enzyme cofactors on 4-hydroxyisoleucine production with 2-e-2 cell lysate; type: biochemical; details: Lysate + 5 mM Ile + 5 mM cofactor; 50 mM HEPES pH 7
T1 construct: the collected and washed 2-e-2 cells were disrupted using a mortar; endogenous in cells; host or cells: Bacillus thuringiensis 2-e-2 cell lysate
Protocol: (§1) The cells were cultured in the AMKP medium until OD660 of 3.2 was achieved, then the collected and washed 2-e-2 cells were disrupted using a mortar, and suspended in a buffer (50 mM HEPES (pH 7.0), 10% of glycerol, Complete Mini (Roche)) until a suspension (lysate) is obtained having a protein concentration of about 10 mg/ml including centrifugation precipitates. The centrifugation precipitates were finally suspended in physiological saline of the same volume as the cell lysate. These were each mixed with an equal volume of a 2× dioxygenase reaction mixture (10 mM Ile, […], 10 mM 2-oxoglutaric acid, 10 mM ascorbic acid, 100 mM HEPES (pH 7.0)), and the reaction proceeded at 30° C. for 1 hour. Similarly, resting cells used for the preparation of the cell lysate were washed, and suspended in physiological saline at a concentration 10 times that in the culture broth, the suspension was mixed with an equal volume of the 2× dioxygenase reaction mixture, and the reaction proceeded.
By using a cell lysate of the 2-e-2 cells in the logarithmic growth phase, the effects of cofactors on the 4-hydroxyisoleucine production reaction by hydroxylation of Ile were examined. A 50 mM HEPES (pH 7) reaction mixture was used containing final concentrations of 5 mM Ile and 5 mM of one of various cofactors with a cell lysate of the 2-e-2 cells (lysate) in the logarithmic growth phase prepared by the method described in <5> above, and the amount of 4-hydroxyisoleucine produced was measured.

[2] = biological target: T2, L-Ile hydroxylase (Bacillus thuringiensis, UniProt E2GIN1); experiment: Effects of addition of cofactors on 4-hydroxyisoleucine production with purified enzyme; type: biochemical; details: purified enzyme + 5 mM L-Ile + 5 mM cofactor; 100 mM HEPES pH 6
T2 construct: made in house; host or cells: Bacillus thuringiensis 2-e-2 (natural producer; enzyme purified by chromatography, not recombinant)
Source text: The effects of cofactors on the production of 4-hydroxyisoleucine by hydroxylation of Ile were examined by using the purified enzyme.

[3] = biological target: T1, enzyme in 2-e-2 cell lysate; experiment: Effect of inhibitors on 4-hydroxyisoleucine production in the 2-e-2 cell lysate; type: biochemical; details: 10 mM inhibitor, pH 6, 30° C., 1 hour
Protocol: as §1
By using a cell lysate prepared from 2-e-2 cells at OD660 of 7 according to the method described in <5>, the effects of inhibitors on the 4-hydroxyisoleucine production were examined. […] The dioxygenase reaction mixture contained 5 mM Ile, 5 mM Fe^2+, 5 mM 2-oxoglutaric acid, 5 mM ascorbic acid, and 100 mM HEPES (pH 6), the reaction temperature was 30° C., and the reaction time was 1 hour. The amount of 4-hydroxyisoleucine which was produced when 10 mM of each inhibitor (EDTA, Cu^2+, Zn^2+) was added to the reaction system was measured. 4-Hydroxyisoleucine was analyzed by the method described in <2>. The isoleucine hydroxylation activity was inhibited by the inhibitors.

[4] = biological target: T2, L-Ile hydroxylase; experiment: Effects of inhibitors on 4-hydroxyisoleucine production by purified L-Ile hydroxylase; type: biochemical; details: 10 mM inhibitor; 4-hydroxyisoleucine production with no inhibitor = 100%; pH 6, 30° C., 1 hour
Protocol: Each fraction was reacted using an Ile hydroxylation activity reaction mixture (100 mM HEPES (pH 6.0), 5 mM L-Ile, 5 mM Fe^2+, 5 mM 2-oxoglutaric acid, 5 mM ascorbic acid at final concentrations) at 30° C. for 30 minutes. The enzyme was inactivated at 100° C., and then the amount of 4-hydroxyisoleucine was quantified by the aforementioned AMKP and HIL separation and measurement method. The 4-hydroxyisoleucine referred to in the subsequent analysis indicates a substance that is substantially composed of the isomer having the same retention time as that of the naturally occurring 4-hydroxyisoleucine. The enzyme activity that produces 1 nmol of HIL per minute was defined as 1 U.
By using L-Ile hydroxylase prepared as described in Example 2, the effect of inhibitors on the production of 4-hydroxyisoleucine were examined. The enzymatic reaction solution contained 5 mM Ile, 5 mM Fe^2+, 5 mM 2-oxoglutaric acid, 5 mM ascorbic acid, and 100 mM HEPES (pH 6), the reaction temperature was 30° C., and the reaction time was 1 hour. The amount of 4-hydroxyisoleucine produced when 10 mM of each inhibitor (EDTA, Cu^2+, Zn^2+) was added to the reaction system was measured. These values are relative to the 4-hydroxyisoleucine production observed with no inhibitor, which was set as 100%. The isoleucine hydroxylation activity was lost in the presence of the inhibitors.

[5] = biological target: T2, L-Ile hydroxylase; experiment: Substrate reaction characteristics of purified L-Ile hydroxylase; type: biochemical; details: 5 mM amino acid; purified enzyme; pH 6, 30° C., 1 hour; HPLC
Protocol: By using L-Ile hydroxylase prepared as described in Example 2, the reaction characteristics for various amino acids were evaluated. The enzyme solution and the reaction mixture were mixed, and then the reaction proceeded at 30° C. for 1 hour, and the production of new substances was evaluated by HPLC analysis. The enzymatic reaction solution contained 5 mM amino acid, 5 mM Fe^2+, 5 mM 2-oxoglutaric acid, 5 mM ascorbic acid, and 100 mM HEPES (pH 6). In addition to L-isoleucine, the amino acids D-isoleucine, L-leucine, L-valine, L-glutamic acid, and L-lysine were also individually evaluated. The produced 4-hydroxyisoleucine was analyzed as in Example 1. Like when using a cell lysate, production of a new substance could not be confirmed for amino acids other than L-isoleucine.

[6] = biological target: IDO(Lys,23) (Bacillus thuringiensis, UniProt E2GIN1)
[7] = tested on: strain 2-e-2; experiment: Effect of addition of cofactors on AMKP production in culture of strain 2-e-2; type: cell-based, Bacillus thuringiensis; details: culture supernatant; 30° C., 22 hours; control 1.34
Protocol: The possibility of molecular oxygen uptake by hydroxylation was considered as a possible mechanism for the production of AMKP. Accordingly, the production of AMKP was analyzed when NAD(P)H, or Fe^2+, 2-oxoglutaric acid and ascorbic acid, were added during the culture of the 2-e-2 strain. NAD(P)H is a cofactor of monooxygenases and Fe^2+, 2-oxoglutaric acid and ascorbic acid are cofactors of dioxygenases.
The culture medium used in the previous screening was used as a control, and the production of AMKP was compared among cultures containing the cofactors as shown in Table 3. The culture temperature was 30° C., and the culture time was 22 hours. The concentration of AMKP in the culture supernatants was measured.

[8] = biological target: T1, enzyme in 2-e-2 cell lysate; experiment: Substrate reaction characteristics of enzyme in 2-e-2 cell lysate; type: biochemical; details: 5 mM amino acid, pH 7, 30° C., 1 hour, TLC or amino acid analysis
Protocol: as §1
By using a cell lysate prepared from 2-e-2 cells at OD660 of 7 according to the method described in <5>, the reaction characteristics for various amino acids were evaluated. The cell lysate and a substrate solution were mixed, then the reaction proceeded at 30° C. for 1 hour, and the production of new substances was evaluated by TLC or amino acid analysis. The substrate reaction mixture contained 5 mM amino acid, 5 mM Fe^2+, 5 mM 2-oxoglutaric acid, 5 mM ascorbic acid, and 100 mM HEPES (pH 7). In addition to L-isoleucine, the amino acids L-leucine, L-valine, L-glutamic acid, and L-lysine were each individually evaluated. The 4-hydroxyisoleucine which was produced was analyzed by the method described in Example 1. Production of amino acids other than L-isoleucine was not observed.

[9] = tested on: dioxygenase activity in fenugreek extract; details: cited from earlier work
[10] = Production of HIL from Ile with crude enzyme solution of E. coli expressing ido genes; type: biochemical, Escherichia coli; details: 28° C., 3 hours, control (pET21b) 11
Protocol: The plasmid expressing the ido gene from B. cereus ATCC 14579, B. thuringiensis AKU238, or B. weihenstephanensis KBAB4, which was constructed in Example 8, was introduced into E. coli Rosetta2 (DE3), and the transformants were cultivated with shaking in LB medium supplemented with 50 μg/ml ampicilin (preculture). By seeding the preculture broth in 50 ml LB medium at 1%, the main culture was carried out at 37° C. 2 hours after the start of the cultivation, IPTG was added to a final concentration of 1 mM, and the cultivation was carried out for an additional 3 hours. After completion of the cultivation, the cells were harvested, washed, suspended in 1 ml of 20 mM Tris-HCl (pH 7.6), and disrupted with a sonicator (INSONATOR 201M, KUBOTA). The lysate was centrifuged at 15000 rpm for 10 minutes, and the supernatant was used as a crude enzyme solution.
By using the crude enzyme solution prepared in (1), the conversion of Ile to HIL was measured. The reaction mixture is described below. The reaction mixture was reacted with shaking (300 rpm) at 28° C. for 3 hours, and then the amount of HIL produced was determined by HPLC.

T1 sequence (E2GIN1 2-240): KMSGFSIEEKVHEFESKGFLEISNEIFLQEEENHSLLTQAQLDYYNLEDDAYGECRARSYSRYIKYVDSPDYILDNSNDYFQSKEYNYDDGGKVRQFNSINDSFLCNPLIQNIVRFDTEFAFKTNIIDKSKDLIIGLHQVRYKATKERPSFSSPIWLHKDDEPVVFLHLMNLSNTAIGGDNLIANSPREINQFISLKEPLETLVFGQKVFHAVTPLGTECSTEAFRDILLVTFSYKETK
T2 sequence (E2GIN1 2-240): as above
IDO(Lys,23), sequence (E2GIN1 2-240): as above

Molecule: O=C1O[C@H]([C@@H](O)CO)C(O)=C1O [Ascorbate, ascorbic acid]
- HIL production [1]: 0.00 mM
- HIL [2]: 0.00 mM

Molecule: [Cu+2] [Cu^2+]
- isoleucine hydroxylation activity in presence of inhibitor [3]: inhibited
- Relative activity (%) [4]: 0%

Molecule: CC[C@@H](C)[C@@H](N)C(=O)O [D-Isoleucine, D-isoleucine]
- Product (reactivity for each amino acid) [5]: None

Molecule: O=C(O)CN(CCN(CC(=O)O)CC(=O)O)CC(=O)O [EDTA]
- activity of IDO(Lys,23) in the presence of the substance [6]: completely blocked
- isoleucine hydroxylation activity in presence of inhibitor [3]: inhibited
- Relative activity (%) [4]: 0%

Molecule: [Fe+2] [Fe^2+]
- HIL production [1]: 0.00 mM
- AMKP concentration [7]: 2.53 mM
- HIL [2]: 0.00 mM

Molecule: N[C@@H](CCC(=O)O)C(=O)O [L-Glutamic acid, L-glutamic acid]
- Product (reactivity for each amino acid) [5]: None
- Product (reactivity for various amino acids) [8]: None

Molecule: CC[C@H](C)[C@H](N)C(=O)O [L-Isoleucine, L-isoleucine]
- isoleucine concentration that inhibits the activity of the enzyme [9]: ≥ 20 mM
- Product (reactivity for each amino acid) [5]: Produced (HIL)
- Product (reactivity for various amino acids) [8]: Produced (HIL)

Molecule: CC(C)C[C@H](N)C(=O)O [L-Leucine, L-leucine]
- Product (reactivity for each amino acid) [5]: None
- Product (reactivity for various amino acids) [8]: None

Molecule: NCCCC[C@H](N)C(=O)O [L-Lysine, L-lysine]
- Product (reactivity for each amino acid) [5]: None
- Product (reactivity for various amino acids) [8]: None

Molecule: CC(C)[C@H](N)C(=O)O [L-Valine, L-valine]
- Product (reactivity for each amino acid) [5]: None
- Product (reactivity for various amino acids) [8]: None

Molecule: [Zn+2] [Zn^2+]
- isoleucine hydroxylation activity in presence of inhibitor [3]: inhibited
- Relative activity (%) [4]: 0%

Molecule: O=C(O)CCC(=O)C(=O)O [α-KG, 2-oxoglutaric acid]
- HIL production [1]: 0.00 mM
- HIL [2]: 0.00 mM

Molecule: NAD(P)H
- AMKP concentration [7]: 1.58 mM

B1: B. weihenstephanensis KBAB4: crude enzyme solution of E. coli expressing ido gene from B. weihenstephanensis KBAB4, SEQ ID NO: 21 (protein, listed as Bacillus weihenstephanensis)
chain: MLTTVSNKTSSFDVEQKVHEFESNGYIQIFNDIFLQDQEDQALLTKAQLDYYSLQNDAYGECRARAYSRYIKYAGSSDYVLDTDNGYFQSEEYNYDDGGKIRNFNSITDEFLHNSLIEKIVRFDSEFASNTNILDTSKDLVIGLHQVRYKATRENPSFSSPIWLHKDDEPIVFLHLMNLSNTALGGDNLIANSPREINKLISLKDPLETLVFGQKVFHAVTPLGTECNTEALRDILLVTFSYKEPK
- Amount of HIL produced from Ile, HIL [10]: 3116 µM

B2: B. thuringiensis israelensis ATCC35646: crude enzyme solution with IDO from B. thuringiensis israelensis ATCC 35646, SEQ ID NO: 8 (protein, listed as Bacillus thuringiensis)
chain: KMSGFSIEEKVHEFESKGFLEISNEIFLQEEENHSLLTQAQLDYYNLEDDAYGECRARSYSRYIKYVDSPDYILDNSNDYFQSKEYNYDDGGKVRQFNSINDSFLCNPLIQNIVHFDTEFAFKTNIIDKSKDLIIGLHQVRYKATKERPSFSSPIWLHKDDEPVVFLHLMNLSNTAIGGDNLIANSPREINQFISLKEPLETLVFGQKVFHAVTPLGTECSTEAFRDILLVTFSYKETK
- Amount of HIL produced from Ile, HIL [10]: 2150 µM

B3: B. thuringiensis AKU238: crude enzyme solution of E. coli expressing ido gene from B. thuringiensis AKU238, SEQ ID NO: 17 (protein, listed as Bacillus thuringiensis)
chain: MEVFIMTFVLSKMSGFSIEEKVHEFESKGFLEISNEIFLQEEENHRLLTQAQLDYYNLEDDAYGECRARSYSRYIKYVDSPDYILDNSNDYFQSKEYNYDDGGKVRQFNSINDSFLCNPLIQNIVRFDTEFAFKTNIIDTSKDLIIGLHQVRYKATKERPSFSSPIWLHKDDEPVVFLHLMNLSNTAIGGDNLIANSPREINQFISLKEPLETLVFGQKVFHAVTPLGTECSTEAFRDILLVTFSYKETK
- Amount of HIL produced from Ile, HIL [10]: 2016 µM
